Test results published in ChEMBL document CHEMBL1153356, “Inhibition of NF-kB and metalloproteinase-9 expression and secretion by parthenolide derivatives” (Bioorg Med Chem Lett, 2009).
Active and inactive are the calls of the source. No cut-off for these calls is given here.

system: not listed separately; assay: Inhibition of NF-kappaB-mediated transcriptional activity transfected in PMA-stimulated HEK293 cells after 24 hrs by luciferase reporter gene assay; assay type: cell-based; settings: HEK293, 24 h

SMILES | IC50
C=C1C(=O)O[C@@H]2C3O[C@]3(C)CC/C=C(\C)CC[C@@H]12 (stereo partly drawn) | 9.76 µM
C=C1C(=O)O[C@@H]2[C@@H](O)[C@]3(C)CC[C@H]3[C@](C)(O)CC[C@@H]12 | 2.8 µM
C=C1C(=O)O[C@H]2[C@@H]3[C@@H](CC[C@@]3(C)O)C(=C)CC[C@@H]12 | 8.8 µM
C=C1C(=O)O[C@H]2[C@H]1CC/C(C)=C\CC[C@@]1(C)O[C@@H]21 | 7.4 µM
C=C1C(=O)O[C@H]2[C@@H]3[C@@H](CC[C@@]3(C)O)[C@](C)(OC)CC[C@@H]12 | 6 µM
C=C1C(=O)O[C@@H]2[C@@H](O)[C@]3(C)CC[C@H]3[C@](C)(OC)CC[C@@H]12 | 2.04 µM

system: HEK293; assay: Inhibition of MMP9 gene transcription in PMA-stimulated HEK293 cells after 24 hrs by luciferase reporter gene assay; assay type: functional, cell-based; settings: Homo sapiens, HEK293, 24 h

SMILES | IC50
C=C1C(=O)O[C@@H]2C3O[C@]3(C)CC/C=C(\C)CC[C@@H]12 (stereo partly drawn) | 6.6 µM
C=C1C(=O)O[C@@H]2[C@@H](O)[C@]3(C)CC[C@H]3[C@](C)(O)CC[C@@H]12 | 3.8 µM
C=C1C(=O)O[C@H]2[C@@H]3[C@@H](CC[C@@]3(C)O)C(=C)CC[C@@H]12 | 6.6 µM
C=C1C(=O)O[C@H]2[C@H]1CC/C(C)=C\CC[C@@]1(C)O[C@@H]21 | 8.5 µM
C=C1C(=O)O[C@H]2[C@@H]3[C@@H](CC[C@@]3(C)O)[C@](C)(OC)CC[C@@H]12 | 8.6 µM
C=C1C(=O)O[C@@H]2[C@@H](O)[C@]3(C)CC[C@H]3[C@](C)(OC)CC[C@@H]12 | 3.2 µM

system: HEK293; assay: Cytotoxicity against HEK293 cells at 20 uM by MTT assay; assay type: cell-based; settings: human, hek293, 20 µM

SMILES | Activity
C=C1C(=O)O[C@@H]2C3O[C@]3(C)CC/C=C(\C)CC[C@@H]12 (stereo partly drawn) | Non-toxic
C=C1C(=O)O[C@@H]2[C@@H](O)[C@]3(C)CC[C@H]3[C@](C)(O)CC[C@@H]12 | Non-toxic
C=C1C(=O)O[C@H]2[C@@H]3[C@@H](CC[C@@]3(C)O)C(=C)CC[C@@H]12 | Non-toxic
C=C1C(=O)O[C@H]2[C@H]1CC/C(C)=C\CC[C@@]1(C)O[C@@H]21 | Non-toxic
C=C1C(=O)O[C@H]2[C@@H]3[C@@H](CC[C@@]3(C)O)[C@](C)(OC)CC[C@@H]12 | Non-toxic
C=C1C(=O)O[C@@H]2[C@@H](O)[C@]3(C)CC[C@H]3[C@](C)(OC)CC[C@@H]12 | Non-toxic

system: THP-1; assay: Cytotoxicity against human THP1 cells at 20 uM by MTT assay; assay type: functional, cell-based; settings: not given

SMILES | Activity
C=C1C(=O)O[C@@H]2C3O[C@]3(C)CC/C=C(\C)CC[C@@H]12 (stereo partly drawn) | Not toxic
C=C1C(=O)O[C@@H]2[C@@H](O)[C@]3(C)CC[C@H]3[C@](C)(O)CC[C@@H]12 | Not toxic
C=C1C(=O)O[C@H]2[C@@H]3[C@@H](CC[C@@]3(C)O)C(=C)CC[C@@H]12 | Not toxic
C=C1C(=O)O[C@H]2[C@H]1CC/C(C)=C\CC[C@@]1(C)O[C@@H]21 | Not toxic
C=C1C(=O)O[C@H]2[C@@H]3[C@@H](CC[C@@]3(C)O)[C@](C)(OC)CC[C@@H]12 | Not toxic
C=C1C(=O)O[C@@H]2[C@@H](O)[C@]3(C)CC[C@H]3[C@](C)(OC)CC[C@@H]12 | Not toxic

system: THP-1; assay: Inhibition of MMP9 secretion in PMA-stimulated human THP1 cells at 20 uM; assay type: functional, cell-based; settings: not given

SMILES | Activity
C=C1C(=O)O[C@@H]2C3O[C@]3(C)CC/C=C(\C)CC[C@@H]12 (stereo partly drawn) | Active
C=C1C(=O)O[C@H]2[C@@H]3[C@@H](CC[C@@]3(C)O)C(=C)CC[C@@H]12 | Active
C=C1C(=O)O[C@H]2[C@H]1CC/C(C)=C\CC[C@@]1(C)O[C@@H]21 | Active
C=C1C(=O)O[C@H]2[C@@H]3[C@@H](CC[C@@]3(C)O)[C@](C)(OC)CC[C@@H]12 | Active
